Source: patent US11542240B2, “STK19 inhibitors for treatment of cancer” (TRUSTEES OF BOSTON UNIVERSITY, priority 2018, dated 2023)

Assays:
Test in all cases: biochemical
Format in all cases: binding
[1] = molecular target: panel of 468 diverse kinases (Homo sapiens, UniProt P07332); details: FES; 1000 nM; read-out: Percent Control
[2] = molecular target: panel of 468 diverse kinases (Homo sapiens, UniProt P29376); details: LTK; 1000 nM; read-out: Percent Control
[3] = molecular target: panel of 468 diverse kinases (Homo sapiens, UniProt Q02779); details: MLK2; 1000 nM; read-out: Percent Control
[4] = molecular target: panel of 468 diverse kinases (Homo sapiens, UniProt Q13177); details: PAK2; 1000 nM; read-out: Percent Control
[5] = molecular target: panel of 468 diverse kinases (Homo sapiens, UniProt O75716); details: STK16; 1000 nM; read-out: Percent Control
panel of 468 diverse kinases (Homo sapiens, UniProt O75716), sequence (O75716 2-305 limits assumed): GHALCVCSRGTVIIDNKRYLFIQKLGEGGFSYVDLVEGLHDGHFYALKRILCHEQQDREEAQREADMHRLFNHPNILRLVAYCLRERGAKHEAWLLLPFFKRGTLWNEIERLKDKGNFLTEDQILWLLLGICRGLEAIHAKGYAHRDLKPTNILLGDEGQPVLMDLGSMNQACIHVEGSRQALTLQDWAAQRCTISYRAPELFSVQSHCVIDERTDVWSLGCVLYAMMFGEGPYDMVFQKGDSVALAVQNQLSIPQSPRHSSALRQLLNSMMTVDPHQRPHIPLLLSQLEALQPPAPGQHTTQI

[6] = molecular target: panel of 468 diverse kinases (Homo sapiens, UniProt P42685); details: FRK; 1000 nM; read-out: Percent Control
[7] = molecular target: panel of 468 diverse kinases (Homo sapiens, UniProt O14757); details: CHEK1; 1000 nM; read-out: Percent Control
[8] = molecular target: panel of 468 diverse kinases (Homo sapiens, UniProt Q07912); details: TNK2; 1000 nM; read-out: Percent Control
[9] = molecular target: panel of 468 diverse kinases (Homo sapiens, UniProt Q02763); details: TIE2; 1000 nM; read-out: Percent Control
panel of 468 diverse kinases (Homo sapiens, UniProt Q02763), sequence (Q02763 23-1124 limits assumed): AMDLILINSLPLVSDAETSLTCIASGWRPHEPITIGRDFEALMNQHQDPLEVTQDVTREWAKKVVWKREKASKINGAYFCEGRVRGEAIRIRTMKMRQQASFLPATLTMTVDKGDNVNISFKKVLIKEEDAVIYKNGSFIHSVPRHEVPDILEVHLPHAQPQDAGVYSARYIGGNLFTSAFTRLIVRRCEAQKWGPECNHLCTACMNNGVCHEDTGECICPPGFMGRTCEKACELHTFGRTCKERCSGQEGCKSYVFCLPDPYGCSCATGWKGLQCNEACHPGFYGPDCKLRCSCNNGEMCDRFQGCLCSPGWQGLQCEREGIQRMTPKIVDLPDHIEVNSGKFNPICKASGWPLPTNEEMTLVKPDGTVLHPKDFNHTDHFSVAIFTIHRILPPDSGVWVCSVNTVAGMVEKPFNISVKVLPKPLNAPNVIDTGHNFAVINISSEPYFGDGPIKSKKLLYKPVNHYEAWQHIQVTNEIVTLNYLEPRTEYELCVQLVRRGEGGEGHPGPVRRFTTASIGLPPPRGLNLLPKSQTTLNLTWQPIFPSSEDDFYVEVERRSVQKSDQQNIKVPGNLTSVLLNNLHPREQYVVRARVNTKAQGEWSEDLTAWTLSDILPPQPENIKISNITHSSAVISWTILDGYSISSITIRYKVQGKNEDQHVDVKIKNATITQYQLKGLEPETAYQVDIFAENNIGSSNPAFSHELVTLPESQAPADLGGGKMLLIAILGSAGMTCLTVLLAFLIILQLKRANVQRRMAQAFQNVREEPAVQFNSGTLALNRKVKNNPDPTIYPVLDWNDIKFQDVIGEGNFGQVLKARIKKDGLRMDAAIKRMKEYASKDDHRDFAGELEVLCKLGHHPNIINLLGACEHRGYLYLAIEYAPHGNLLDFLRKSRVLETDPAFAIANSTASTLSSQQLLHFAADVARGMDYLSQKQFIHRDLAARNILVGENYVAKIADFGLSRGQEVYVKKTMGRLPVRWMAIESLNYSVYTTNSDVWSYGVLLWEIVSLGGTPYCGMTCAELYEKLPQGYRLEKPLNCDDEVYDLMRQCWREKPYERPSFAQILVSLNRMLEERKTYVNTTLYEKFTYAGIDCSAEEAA

[10] = molecular target: panel of 468 diverse kinases (Homo sapiens, UniProt P57078); details: RIPK4; 1000 nM; read-out: Percent Control
[11] = molecular target: panel of 468 diverse kinases (Homo sapiens, UniProt O95835); details: LATS1; 1000 nM; read-out: Percent Control
[12] = molecular target: panel of 468 diverse kinases (Homo sapiens, UniProt Q9Y2U5); details: MAP3K2; 1000 nM; read-out: Percent Control
[13] = molecular target: panel of 468 diverse kinases (Homo sapiens, UniProt Q9BYT3); details: STK33; 1000 nM; read-out: Percent Control
[14] = molecular target: panel of 468 diverse kinases (Homo sapiens, UniProt Q92630); details: DYRK2; 1000 nM; read-out: Percent Control
[15] = molecular target: panel of 468 diverse kinases (Homo sapiens, UniProt P42336, C420R); details: PIK3CA(C420R); 1000 nM; read-out: Percent Control
[16] = molecular target: panel of 468 diverse kinases (Homo sapiens, UniProt P00533, DEL746-750); details: EGFR(E746-A750del); 1000 nM; read-out: Percent Control
[17] = molecular target: panel of 468 diverse kinases (Homo sapiens, UniProt P52333); details: JAK3(JH1domain-catalytic); 1000 nM; read-out: Percent Control
[18] = molecular target: panel of 468 diverse kinases (Homo sapiens, UniProt P27361); details: ERK1; 1000 nM; read-out: Percent Control
[19] = molecular target: panel of 468 diverse kinases (Homo sapiens, UniProt Q8NEB9); details: VPS34; 1000 nM; read-out: Percent Control
[20] = molecular target: panel of 468 diverse kinases (Homo sapiens, UniProt P00519, E255K); details: ABL1(E255K)-phosphorylated; 1000 nM; read-out: Percent Control
[21] = molecular target: panel of 468 diverse kinases (Homo sapiens, UniProt Q04771); details: ACVR1; 1000 nM; read-out: Percent Control
[22] = molecular target: panel of 468 diverse kinases (Homo sapiens, UniProt Q8IVH8); details: MAP4K3; 1000 nM; read-out: Percent Control
[23] = molecular target: panel of 468 diverse kinases (Homo sapiens, UniProt Q05397); details: FAK; 1000 nM; read-out: Percent Control
[24] = molecular target: panel of 468 diverse kinases (Homo sapiens, UniProt O14730); details: RIOK3; 1000 nM; read-out: Percent Control
[25] = molecular target: panel of 468 diverse kinases (Homo sapiens, UniProt P29323); details: EPHB2; 1000 nM; read-out: Percent Control
panel of 468 diverse kinases (Homo sapiens, UniProt P29323), sequence (P29323 19-1055 limits assumed): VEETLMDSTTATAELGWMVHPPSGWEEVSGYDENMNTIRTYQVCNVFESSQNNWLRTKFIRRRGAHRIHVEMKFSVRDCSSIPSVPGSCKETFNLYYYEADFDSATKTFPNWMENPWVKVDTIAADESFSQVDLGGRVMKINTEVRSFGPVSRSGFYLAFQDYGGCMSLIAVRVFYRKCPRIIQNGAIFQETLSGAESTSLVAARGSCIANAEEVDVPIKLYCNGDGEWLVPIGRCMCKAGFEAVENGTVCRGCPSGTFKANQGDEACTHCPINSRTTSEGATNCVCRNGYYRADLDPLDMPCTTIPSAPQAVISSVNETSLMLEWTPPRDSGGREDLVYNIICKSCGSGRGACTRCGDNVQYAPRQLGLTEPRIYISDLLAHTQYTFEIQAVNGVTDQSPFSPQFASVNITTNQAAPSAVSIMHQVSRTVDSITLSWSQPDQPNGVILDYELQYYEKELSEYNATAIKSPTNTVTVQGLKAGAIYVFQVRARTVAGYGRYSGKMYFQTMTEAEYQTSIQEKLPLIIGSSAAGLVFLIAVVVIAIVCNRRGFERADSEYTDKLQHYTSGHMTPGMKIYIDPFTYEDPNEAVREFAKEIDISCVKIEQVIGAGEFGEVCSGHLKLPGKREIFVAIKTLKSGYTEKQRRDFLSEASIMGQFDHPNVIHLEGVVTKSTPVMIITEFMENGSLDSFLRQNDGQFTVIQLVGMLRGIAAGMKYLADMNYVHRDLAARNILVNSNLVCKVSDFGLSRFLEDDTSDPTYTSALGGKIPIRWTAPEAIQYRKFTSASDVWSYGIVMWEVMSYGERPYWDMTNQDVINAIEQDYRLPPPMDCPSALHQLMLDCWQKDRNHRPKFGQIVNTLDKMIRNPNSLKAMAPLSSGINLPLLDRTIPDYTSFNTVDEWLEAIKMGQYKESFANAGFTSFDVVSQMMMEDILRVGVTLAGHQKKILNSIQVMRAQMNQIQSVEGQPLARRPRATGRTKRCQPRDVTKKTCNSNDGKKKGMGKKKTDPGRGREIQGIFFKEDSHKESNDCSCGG

[26] = molecular target: panel of 468 diverse kinases (Homo sapiens, UniProt Q92918); details: HPK1; 1000 nM; read-out: Percent Control
[27] = molecular target: panel of 468 diverse kinases (Homo sapiens, UniProt Q32MK0); details: MLCK; 1000 nM; read-out: Percent Control
[28] = molecular target: panel of 468 diverse kinases (Homo sapiens, UniProt Q9UM73, L1196M); details: ALK(L1196M); 1000 nM; read-out: Percent Control
[29] = molecular target: panel of 468 diverse kinases (Homo sapiens, UniProt O14976); details: GAK; 1000 nM; read-out: Percent Control
panel of 468 diverse kinases (Homo sapiens, UniProt O14976), sequence (O14976 2-1311 limits assumed): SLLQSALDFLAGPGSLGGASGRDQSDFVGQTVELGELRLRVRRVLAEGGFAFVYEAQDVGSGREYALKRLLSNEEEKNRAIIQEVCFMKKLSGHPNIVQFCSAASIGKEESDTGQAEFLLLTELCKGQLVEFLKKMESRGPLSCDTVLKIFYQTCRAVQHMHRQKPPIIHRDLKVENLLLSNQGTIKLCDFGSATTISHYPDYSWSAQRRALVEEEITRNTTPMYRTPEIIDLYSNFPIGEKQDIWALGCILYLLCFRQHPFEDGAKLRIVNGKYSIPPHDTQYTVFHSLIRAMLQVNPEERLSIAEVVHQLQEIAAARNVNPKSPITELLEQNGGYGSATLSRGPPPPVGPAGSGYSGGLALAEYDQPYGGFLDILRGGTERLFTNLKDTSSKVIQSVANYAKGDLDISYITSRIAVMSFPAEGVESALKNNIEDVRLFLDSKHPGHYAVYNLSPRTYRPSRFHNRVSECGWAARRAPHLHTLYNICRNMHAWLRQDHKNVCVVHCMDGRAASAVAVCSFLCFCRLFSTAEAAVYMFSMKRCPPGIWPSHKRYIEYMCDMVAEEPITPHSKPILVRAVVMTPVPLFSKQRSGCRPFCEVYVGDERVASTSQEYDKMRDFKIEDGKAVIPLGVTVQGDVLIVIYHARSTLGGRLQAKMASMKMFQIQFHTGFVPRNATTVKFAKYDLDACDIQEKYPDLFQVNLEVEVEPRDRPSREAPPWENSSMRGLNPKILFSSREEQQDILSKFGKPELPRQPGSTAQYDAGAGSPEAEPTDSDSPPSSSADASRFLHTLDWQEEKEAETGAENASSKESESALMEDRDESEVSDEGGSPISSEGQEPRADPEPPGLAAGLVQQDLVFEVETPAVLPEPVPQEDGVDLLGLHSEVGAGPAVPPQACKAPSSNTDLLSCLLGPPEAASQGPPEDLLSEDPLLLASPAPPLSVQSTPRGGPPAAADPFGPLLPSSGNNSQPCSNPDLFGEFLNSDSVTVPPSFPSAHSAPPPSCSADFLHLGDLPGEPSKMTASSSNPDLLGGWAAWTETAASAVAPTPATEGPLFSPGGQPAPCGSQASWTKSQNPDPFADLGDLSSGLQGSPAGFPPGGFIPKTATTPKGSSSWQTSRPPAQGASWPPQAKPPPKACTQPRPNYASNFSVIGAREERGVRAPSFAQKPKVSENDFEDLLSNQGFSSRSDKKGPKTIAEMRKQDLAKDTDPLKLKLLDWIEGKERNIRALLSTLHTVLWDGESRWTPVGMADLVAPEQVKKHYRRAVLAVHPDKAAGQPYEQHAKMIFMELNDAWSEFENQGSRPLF

[30] = molecular target: panel of 468 diverse kinases (Homo sapiens, UniProt Q9UL54); details: TAOK2; 1000 nM; read-out: Percent Control
[31] = molecular target: panel of 468 diverse kinases (Homo sapiens, UniProt P06213); details: INSR; 1000 nM; read-out: Percent Control
panel of 468 diverse kinases (Homo sapiens, UniProt P06213), sequence (P06213 28-758 limits assumed): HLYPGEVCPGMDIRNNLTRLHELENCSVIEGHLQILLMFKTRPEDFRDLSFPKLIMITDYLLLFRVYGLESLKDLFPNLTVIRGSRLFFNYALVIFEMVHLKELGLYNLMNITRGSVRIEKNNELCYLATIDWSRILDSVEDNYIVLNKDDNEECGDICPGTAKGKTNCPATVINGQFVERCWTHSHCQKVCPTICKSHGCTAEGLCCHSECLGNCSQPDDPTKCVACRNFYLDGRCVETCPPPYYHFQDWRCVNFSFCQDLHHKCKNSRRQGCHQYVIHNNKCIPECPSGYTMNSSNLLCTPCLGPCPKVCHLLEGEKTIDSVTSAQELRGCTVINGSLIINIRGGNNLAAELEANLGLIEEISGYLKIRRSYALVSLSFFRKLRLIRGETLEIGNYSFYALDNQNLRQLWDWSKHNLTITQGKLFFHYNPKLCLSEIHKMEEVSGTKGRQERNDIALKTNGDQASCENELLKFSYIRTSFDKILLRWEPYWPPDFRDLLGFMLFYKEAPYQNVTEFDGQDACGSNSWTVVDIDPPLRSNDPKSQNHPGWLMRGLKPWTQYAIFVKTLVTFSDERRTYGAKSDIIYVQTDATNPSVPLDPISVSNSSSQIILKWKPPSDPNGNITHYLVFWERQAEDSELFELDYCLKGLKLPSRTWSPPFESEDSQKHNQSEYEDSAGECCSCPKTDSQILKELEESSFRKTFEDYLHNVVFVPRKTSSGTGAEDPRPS
panel of 468 diverse kinases (Homo sapiens, UniProt P06213), sequence (P06213 763-1382 limits assumed): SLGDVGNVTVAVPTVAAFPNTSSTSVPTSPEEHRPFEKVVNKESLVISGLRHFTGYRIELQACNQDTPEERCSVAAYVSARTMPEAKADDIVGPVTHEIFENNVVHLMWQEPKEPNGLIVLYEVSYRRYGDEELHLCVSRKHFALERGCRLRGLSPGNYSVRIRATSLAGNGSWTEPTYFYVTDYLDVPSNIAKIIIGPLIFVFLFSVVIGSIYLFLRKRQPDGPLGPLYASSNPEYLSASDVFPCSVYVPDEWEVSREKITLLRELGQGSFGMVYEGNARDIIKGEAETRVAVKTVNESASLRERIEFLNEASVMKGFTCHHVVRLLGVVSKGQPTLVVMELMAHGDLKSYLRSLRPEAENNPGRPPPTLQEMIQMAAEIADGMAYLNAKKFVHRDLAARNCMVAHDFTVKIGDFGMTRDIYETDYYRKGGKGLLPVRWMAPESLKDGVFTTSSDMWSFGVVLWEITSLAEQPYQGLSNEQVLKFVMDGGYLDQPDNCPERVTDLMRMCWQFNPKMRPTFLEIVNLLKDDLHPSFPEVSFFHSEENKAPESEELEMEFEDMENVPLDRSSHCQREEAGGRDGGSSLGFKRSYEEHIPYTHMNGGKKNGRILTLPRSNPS

COc1cc2nc(NC3CC3)nc(NC3CCN(C(C)C)CC3)c2cc1OC [Formula IV]
remaining activity at 1 µM [1]: 100% | remaining activity at 1 µM [2]: 82% | remaining activity at 1 µM [3]: 95% | remaining activity at 1 µM [4]: 63% | remaining activity at 1 µM [5]: 83% | remaining activity at 1 µM [6]: 100% | remaining activity at 1 µM [7]: 93% | remaining activity at 1 µM [8]: 100% | remaining activity at 1 µM [9]: 100% | remaining activity at 1 µM [10]: 99% | remaining activity at 1 µM [11]: 100% | remaining activity at 1 µM [12]: 65% | remaining activity at 1 µM [13]: 92% | remaining activity at 1 µM [14]: 84% | remaining activity at 1 µM [15]: 91% | remaining activity at 1 µM [16]: 63% | remaining activity at 1 µM [17]: 70% | remaining activity at 1 µM [18]: 98% | remaining activity at 1 µM [19]: 51% | remaining activity at 1 µM [20]: 89% | remaining activity at 1 µM [21]: 100% | remaining activity at 1 µM [22]: 91% | remaining activity at 1 µM [23]: 88% | remaining activity at 1 µM [24]: 100% | remaining activity at 1 µM [25]: 70% | remaining activity at 1 µM [26]: 86% | remaining activity at 1 µM [27]: 91% | remaining activity at 1 µM [28]: 78% | remaining activity at 1 µM [29]: 92% | remaining activity at 1 µM [30]: 87% | remaining activity at 1 µM [31]: 57%
